Like-named read-outs stand apart in the source and are kept apart here. Marks after values point to notes of the source that are not given here.
Legend:
[1] = target: T1, human OT receptors (Homo sapiens, UniProt P30559); assay type: cell-based
T1 construct: expressed in transfected cells; host or cells: HEK-293 cells (stably transformed, G418 selection)
T1 sequence (P30559 1-389): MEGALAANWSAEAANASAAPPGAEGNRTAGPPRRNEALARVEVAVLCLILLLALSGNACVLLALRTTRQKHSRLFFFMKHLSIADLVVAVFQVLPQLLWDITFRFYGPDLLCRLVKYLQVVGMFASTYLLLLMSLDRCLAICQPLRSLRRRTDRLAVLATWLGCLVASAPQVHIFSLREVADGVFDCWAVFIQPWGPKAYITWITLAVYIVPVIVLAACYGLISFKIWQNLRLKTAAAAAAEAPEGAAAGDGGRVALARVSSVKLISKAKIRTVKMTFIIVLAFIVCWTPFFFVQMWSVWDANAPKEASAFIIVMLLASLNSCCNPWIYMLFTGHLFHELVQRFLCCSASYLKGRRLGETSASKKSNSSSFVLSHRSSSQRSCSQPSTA
Method: Plasmid constructs were described previously (Amina et al. 2010). Human embryonic kidney HEK‐293 cells were maintained in Dulbecco's Modified Eagle's Medium (DMEM) supplemented with 10% fetal bovine serum (FBS) and Geneticin G418 100 μg/mL at 37°C in a humidified atmosphere of 95% air and 5% CO2. Cells were grown in culture dishes to 80–90% confluence and transfected with the expression plasmid pcDNAHOXTR‐376R or pcDNA3(+) (Invitrogen, Carlsbad, CA) (MOCK‐transfected cells), using FuGENE HD Transfection Reagent (Roche, Basel, Switzerland) in accordance with the manufacturer's instructions.
We measured [Ca^2+]i using the fluorescent Ca^2+ indicator fura‐2‐acetoxymethyl ester (fura‐2/AM). Transfected HEK‐293 cells were loaded with fura‐2/AM to a final concentration of 1 μmol/L in complete medium and incubated at 37°C as reported previously (Ma et al. 2013). After 30‐min loading, the cells were washed three times with HEPES‐buffered saline (HBS) solution (145 mmol/L NaCl, 5 mmol/L KCl, 1 mmol/L MgCl2, 20 mmol/L HEPES‐NaOH, 2 mmol/L CaCl2, 20 mmol/L glucose, pH 7.4). The fluorescence of the cells loaded with fura‐2/AM was then measured at 37°C, at the determined sites, through a pinhole (10–20 μm in diameter). We used alternating excitation wavelengths of 340 and 380 nm in a Ca^2+ microspectrofluorometric system (IX‐73 Model; Olympus, Tokyo, Japan) and Metafluor software (Molecular Devices, Sunnyvale, CA), as described previously (Hashii et al. 2000). […] The ratio of fluorescence at 340 nm and 380 nm (F340/F380) was used to determine [Ca^2+]i. All data were normalized to the baseline fluorescence (F0) recorded 10 s before addition, and given as F/F0 where F – maximal ratio of fluorescence after drug's application.

[2] = male, ICR, mouse, in vivo, ip, 100 ng/kg
[3] = male, ICR, mouse, in vivo, ip, 100 ng/kg, 0.5 h
[4] = drug responses at 10^−8 mol/L relative to OT as 100%, HEK‐293 cells expressing pcDNAHOXTR‐376R, mean ± SEM, n = 25

CCCCCCCCCCCCCCCC(=O)N[C@H]1CSSC[C@@H](C(=O)N2CCC[C@H]2C(=O)N[C@@H](CC(C)C)C(=O)NCC(N)=O)NC(=O)[C@H](CC(N)=O)NC(=O)[C@H](CCC(N)=O)NC(=O)[C@H]([C@@H](C)CC)NC(=O)[C@H](Cc2ccc(O)cc2)NC1=O [LOT‐2, lipo‐oxytocin‐2]
Percentage of maximum Ca^2+ mobilization ([1]; 10.0): 45.5 ± 0.83 ^a ^, ^b %

CCCCCCCCCCCCCCCC(=O)Oc1ccc(C[C@@H]2NC(=O)[C@@H](N)CSSC[C@@H](C(=O)N3CCC[C@H]3C(=O)N[C@@H](CC(C)C)C(=O)NCC(N)=O)NC(=O)[C@H](CC(N)=O)NC(=O)[C@H](CCC(N)=O)NC(=O)[C@H]([C@@H](C)CC)NC2=O)cc1 [LOT‐3, lipo‐oxytocin‐3]
Percentage of maximum Ca^2+ mobilization ([1]; 10.0): 13.1 ± 1.8 ^a ^, ^c %

CCCCCCCCCCCCCCCC(=O)N[C@H]1CSSC[C@@H](C(=O)N2CCC[C@H]2C(=O)N[C@@H](CC(C)C)C(=O)NCC(N)=O)NC(=O)[C@H](CC(N)=O)NC(=O)[C@H](CCC(N)=O)NC(=O)[C@H]([C@@H](C)CC)NC(=O)[C@H](Cc2ccc(OC(=O)CCCCCCCCCCCCCCC)cc2)NC1=O [LOT‐1, lipo‐oxytocin‐1]
Percentage of maximum Ca^2+ mobilization [1, 4]: 12.6 ± 1.8 ^a ^, ^c %

CC[C@H](C)[C@@H]1NC(=O)[C@H](Cc2ccc(O)cc2)NC(=O)[C@@H](N)CSSC[C@@H](C(=O)N2CCC[C@H]2C(=O)N[C@@H](CC(C)C)C(=O)NCC(N)=O)NC(=O)[C@H](CC(N)=O)NC(=O)[C@H](CCC(N)=O)NC1=O [OT, Oxytocin]
Percentage of maximum Ca^2+ mobilization [1, 4]: 100% | plasma level of OT ([2]; 0.5 h): 0.695 ± 0.052 ng/mL | plasma level of OT ([2]; 24 h): 0.547 ± 0.039 ng/mL | level of OT in the CSF [3]: 0.347 ± 0.038 ng/mL

— paper PMC5461640 (Pharmacology Research & Perspectives, 2017)
